In patent US8609084B2, “Protection of plants against their pathogenic agents” (Lesaffre et Compagnie, priority 2005, dated 2013):

Tested on: Venturia inaequalis
Assay: Efficiency against scab, grafted apple plants in pots
Assay type: in vivo
Set-up: Efficiency (%) Leaves treated / Efficiency (%) All leaves / Efficiency (%) New leaves: concentration or dose not given beside the values
Method: The test was carried out on grafted plants, in pots. Three species were used: ‘Reinette des Capucins’, ‘Jonagold’, and ‘Reinette de Waleffe’, grafted on M9 rootstock. The plants were grown under a plastic tunnel at different times, so that they were all at the same stage at the time of the trial: starting with Reinette de Waleffe, then 15 days later, Reinette des Capucins, then 1 week later, Jonagold.
The plants were labelled with the variety and the method of treatment received before inoculation.
The method of treatment, preparation of the inoculum, inoculation and observations are similar to those described in example 1.
The plants were treated twice, successively, 10 days apart. The day following the second treatment, the last extended leaf ? F1 ? was identified.
Two days after the second treatment, the pathogen (Venturia inaequalis) was inoculated using a dose of 1.5×10^5 conidia/ml, directly in the moist room. Inoculation is followed by a 48 hours incubation in moist room at 18° C., then the plants remained in the boxes with a temperature of 18°±2° C. and a relative humidity of 80±10%.
The study was organised as follows:
The OY2 yeast cell walls correspond to an acqueous suspension at 25 mg/l of the Springcell 8001 product from Biospringer SAS, (Maisons-Alfort), France), with 96% cell walls of dry matter content.
The observations were made on the 21st day after the inoculation of the last 2 treated leaves (F2 and F1) and on the leaf newly formed after treatment (F0) for about 25 leaves per subject.
An observation at 41 days after the treatment gave the following results.
At this time, new leaves had extended: F-1 and F-2, and the disease progressed by natural contamination, without any re-inoculation.

[1] = All varieties, 21st day after inoculation
[2] = All varieties, 41 days after the treatment
[3] = Capucins, 21st day after inoculation
[4] = Capucins, 41 days after the treatment
[5] = Jonagold, 21st day after inoculation
[6] = Jonagold, 41 days after the treatment
[7] = Waleffe, 21st day after inoculation
[8] = Waleffe, 41 days after the treatment

Question: How did the “Efficiency (%) All leaves” value [1] turn out when `CC(N)CC(=O)O` (stereo not drawn) [baba, β-aminobutyric acid] was run?
Answer: The value was 47.2%.

Question: What about the “Efficiency (%) F0” value [1] of the same compound?
Answer: The value was 27.0%.

Question: What about the “Efficiency (%) F1” value [1] of the same compound?
Answer: Its value is 47.1%.

Question: What about the “Efficiency (%) F2” value [1] of the same compound?
Answer: Its value is 67.6%.

Question: And the “Efficiency (%) Leaves treated” value [1]?
Answer: Its value is 57.4%.

Question: What about the “Sporulant surface/leaf (%) F0” value [1] of the same compound?
Answer: Its value is 13.0%.

Question: What about the “Sporulant surface/leaf (%) F1” value [1] of the same compound?
Answer: Its value is 15.4%.

Question: What about the “Sporulant surface/leaf (%) F2” value [1] of the same compound?
Answer: The value was 9.6%.

Question: And the “Efficiency (%) All leaves” value [2]?
Answer: The value was 54.2%.

Question: What about the “Efficiency (%) New leaves” value [2] of the same compound?
Answer: The value was 40.1%.

Question: And the “Efficiency (%) Treated leaves” value [2]?
Answer: The value was 68.1%.

Question: What about the “Sporulant surface/leaf (%) F0” value [2] of the same compound?
Answer: The value was 31.0%.

Question: What about the “Sporulant surface/leaf (%) F1” value [2] of the same compound?
Answer: Its value is 26.7%.

Question: And the “Sporulant surface/leaf (%) F2” value [2]?
Answer: The value was 10.0%.

Question: And the “Sporulant surface/leaf (%) F-1” value [2]?
Answer: Its value is 28.2%.

Question: And the “Sporulant surface/leaf (%) F-2” value [2]?
Answer: Its value is 8.6%.

Question: And the “Efficiency (%) All leaves” value [3]?
Answer: Its value is 60.3%.

Question: What about the “Efficiency (%) F0” value [3] of the same compound?
Answer: Its value is 45.3%.

Question: What about the “Efficiency (%) F1” value [3] of the same compound?
Answer: Its value is 59.8%.

Question: What about the “Efficiency (%) F2” value [3] of the same compound?
Answer: Its value is 75.8%.

Question: What about the “Efficiency (%) Leaves treated” value [3] of the same compound?
Answer: The value was 67.8%.

Question: And the “Sporulant surface/leaf (%) F0” value [3]?
Answer: Its value is 4.3%.

Question: What about the “Sporulant surface/leaf (%) F1” value [3] of the same compound?
Answer: Its value is 8.0%.

Question: And the “Sporulant surface/leaf (%) F2” value [3]?
Answer: Its value is 4.2%.

Question: What about the “Efficiency (%) All leaves” value [4] of the same compound?
Answer: The value was 77.1%.

Question: And the “Efficiency (%) New leaves” value [4]?
Answer: The value was 55.5%.

Question: What about the “Efficiency (%) Treated leaves” value [4] of the same compound?
Answer: Its value is 88.2%.

Question: What about the “Sporulant surface/leaf (%) F0” value [4] of the same compound?
Answer: The value was 14.07%.

Question: What about the “Sporulant surface/leaf (%) F1” value [4] of the same compound?
Answer: The value was 10.62%.

Question: And the “Sporulant surface/leaf (%) F2” value [4]?
Answer: Its value is 4.00%.

Question: And the “Sporulant surface/leaf (%) F-1” value [4]?
Answer: The value was 9.95%.

Question: And the “Sporulant surface/leaf (%) F-2” value [4]?
Answer: The value was 4.00%.

Question: What about the “Efficiency (%) All leaves” value [5] of the same compound?
Answer: The value was 57.9%.

Question: And the “Efficiency (%) F0” value [5]?
Answer: Its value is 38.0%.

Question: And the “Efficiency (%) F1” value [5]?
Answer: Its value is 50.5%.

Question: And the “Efficiency (%) F2” value [5]?
Answer: The value was 85.1%.

Question: What about the “Efficiency (%) Leaves treated” value [5] of the same compound?
Answer: Its value is 67.8%.

Question: What about the “Sporulant surface/leaf (%) F0” value [5] of the same compound?
Answer: Its value is 13.9%.

Question: What about the “Sporulant surface/leaf (%) F1” value [5] of the same compound?
Answer: Its value is 17.9%.

Question: And the “Sporulant surface/leaf (%) F2” value [5]?
Answer: Its value is 6.0%.

Question: What about the “Efficiency (%) All leaves” value [6] of the same compound?
Answer: The value was 57.7%.

Question: And the “Efficiency (%) New leaves” value [6]?
Answer: Its value is 49.0%.

Question: And the “Efficiency (%) Treated leaves” value [6]?
Answer: The value was 67.8%.

Question: What about the “Sporulant surface/leaf (%) F0” value [6] of the same compound?
Answer: Its value is 37.79%.

Question: What about the “Sporulant surface/leaf (%) F1” value [6] of the same compound?
Answer: Its value is 27.57%.

Question: What about the “Sporulant surface/leaf (%) F2” value [6] of the same compound?
Answer: The value was 10.57%.

Question: And the “Sporulant surface/leaf (%) F-1” value [6]?
Answer: The value was 29.57%.

Question: What about the “Sporulant surface/leaf (%) F-2” value [6] of the same compound?
Answer: Its value is 3.43%.

Question: What about the “Efficiency (%) All leaves” value [7] of the same compound?
Answer: Its value is 28.6%.

Question: What about the “Efficiency (%) F0” value [7] of the same compound?
Answer: Its value is 10.3%.

Question: What about the “Efficiency (%) F1” value [7] of the same compound?
Answer: The value was 35.2%.

Question: And the “Efficiency (%) F2” value [7]?
Answer: Its value is 40.3%.

Question: And the “Efficiency (%) Leaves treated” value [7]?
Answer: Its value is 37.8%.

Question: What about the “Sporulant surface/leaf (%) F0” value [7] of the same compound?
Answer: The value was 20.9%.

Question: And the “Sporulant surface/leaf (%) F1” value [7]?
Answer: Its value is 20.4%.

Question: What about the “Sporulant surface/leaf (%) F2” value [7] of the same compound?
Answer: Its value is 18.6%.

Question: And the “Efficiency (%) All leaves” value [8]?
Answer: Its value is 33.0%.

Question: And the “Efficiency (%) New leaves” value [8]?
Answer: The value was 24.0%.

Question: What about the “Efficiency (%) Treated leaves” value [8] of the same compound?
Answer: The value was 44.8%.

Question: What about the “Sporulant surface/leaf (%) F0” value [8] of the same compound?
Answer: Its value is 41.05%.

Question: What about the “Sporulant surface/leaf (%) F1” value [8] of the same compound?
Answer: Its value is 42.00%.

Question: And the “Sporulant surface/leaf (%) F2” value [8]?
Answer: Its value is 15.55%.

Question: And the “Sporulant surface/leaf (%) F-1” value [8]?
Answer: The value was 45.16%.

Question: And the “Sporulant surface/leaf (%) F-2” value [8]?
Answer: Its value is 18.42%.
